The values that follow come from patent publication US11974988B2, “Neuroprotective compositions and methods of using the same” (The Board of Supervisors of Louisiana State Univer …, priority 2018, dated 2024).

pEC50, pIC50: −log10 of the molar value. ≈ marks a conversion by molar mass, not a printed value. Where “and” joins values, the source holds several entries; their conditions need not be identical. Equal values may be shown once. Entries after “also recorded” stand apart in the source; their conditions may differ. Read-outs that look alike come from different tables or passages of the source.

Series [1] concerns activity-regulated Gln/MeAIB transport (SNAT activity) in hippocampal neurons. The settings on record: cited from earlier work; for block of 14C-MeAIB transport activity: 2 mM; for Km: read-out: Km of the activity-regulated Gln/MeAIB transport system.
Series [2] deals with hippocampal neurons of KA-treated rats. The series can be described thus: KA-induced status epilepticus model, hippocampal neurodegeneration (fluoro-jade B, NeuN). The series is classed as in vivo, rat. The settings on record: for neuroprotection against Glu-induced excitotoxicity in the KA model of TLE: rat, in vivo.
Source text: (§1) In Aim 3, we treat male and female rats with the ‘best’ SKA-41 derivatives before and after injection of kainic acid (KA). The KA-induced status epilepticus (SE) model is a well-validated model of temporal lobe epilepsy (TLE), the major form of human epilepsy. The model allows studying the different stages between SE and the development of TLE including SE, the acute and latent stages of epileptogenesis and chronic epilepsy. The excitotoxin KA causes excessive Glu release in the hippocampus and selective destruction of inhibitory SOM interneurons in the hilus region of the dentate gyrus (DG) and loss of pyramidal neurons in the CA3 (esp), and also CA1 regions. We scaled up synthesis of SKA-41, 219, and SKA-378. The identity of the compounds was confirmed by ^1H- and ^13C-NMR and high-resolution mass spectrometry. Compound purity is determined by HPLC and no compounds with less then 98% purity were used. […] Rats were processed for immunohistochemistry 3 days after KA administration. As expected, we find that KA treatment induces significant neural damage (green cells) in the CA3 pyramidal neuron subfield and in neurons in the hilus (FIG. 20 Panel A), which are SOM containing GABAergic interneurons (not shown). Fluoro jade B is a high affinity fluorescent marker used for the localization of neuronal degeneration. […] In studies, we have also administered SKA-378 (30 mg/kg) one hr after the onset of stage IV seizures (SE), followed by another injection at 4 hr post SE and then once each day for 3 days. We find that SKA-378 is also neuroprotective under these conditions.
as §1, with “with” for “with the ‘best’”, “(esp)” for “(esp),”, “were” for “was”, “We” for “As expected, we”, “23” for “20”, “Fluoro-jade” for “Fluoro jade”

Series [3] can be described thus: Max. solubility (Table 1). The series is classed as physicochemical.
In series [4] the test system is activity-regulated Gln/MeAIB transport (SNAT activity) in hippocampal neurons. The series can be described thus: Activity-regulated (spontaneous, 4-AP- or K+-stimulated) [14C]-MeAIB transport in primary hippocampal neurons. The series is classed as cell-based, rat. The arrangement: block of transport activity: dose or concentration left out as unconfirmed. The settings on record: for inhibition at 10 µM / pIC50: Rattus norvegicus, Hippocampal neuron; for inhibition at 10 µM: read-out: block / inhibition of transport activity; for inhibition of spontaneous activity-regulated 14C-MeAIB transport, in words: screens, 10 μM, GABA 2 mM; for potency to inhibit activity-regulated MeAIB transport relative to a comparator, in words: spontaneous and 4-AP stimulated transport; for relative affinity for PMA-induced K+-activity-stimulated Gln/MeAIB transport activity: PMA 10 min before KCl 60 mM.

The next series concerns the target T1, NaV1.2 (Mus musculus, UniProt B1AWN6).
T1 construct: N1E-115 cells that constitutively express NaV1.2; endogenous in cells; host or cells: N1E-115 mouse neuroblastoma cells
The series can be described thus: NaV currents recorded by whole-cell patch clamp from N1E-115 neuroblastoma cells expressing NaV1.2. The series is classed as cell-based. An excerpt:
Cells were held at −80 mV and current elicited by a 0 mV depolarization stepped from a −120 mV conditioning pulse at 0.1 Hz.
Cells transiently (or stably) expressing voltage-gated Na^+ or K^+ channels will be subjected to electrophysiological recording using the whole-cell patch-clamp technique. We will use HEK-293 cell lines stably expressing hNaV1.1, hNaV1.5, hNaV1/7, hNaV1.4, and hKV2.1. […] All cells will be voltage clamped to a holding potential of −90 mV, otherwise specified if held at −120 mV in the case of NaV1.2 use-dependence recording. Na^+ currents will be elicited by 30-ms pulse to 0 mV from −90 mV applied every 10 s. KV2.1 currents will be elicited by 200-ms voltage steps from −90 to 40 mV applied every 10 s.

Another series concerns KCa2 and NaV channels. As to conditions: cited from earlier work.
The test system of the next series is SNAT1 or SNAT2. The settings on record: cited from earlier work.
A further series has as its system plasma protein. In words: Plasma protein binding. The format is in vitro ADME, rat. An excerpt: Synthesis of SKA-41, SKA-190, SKA-219 and SKA-220 and will validate plasma protein binding with rat plasma using equilibrium dialysis so that we can validate protein binding.
The subject of series [5] is delayed-rectifier K+ channels and two-pore K+ channels. The settings on record: cited from earlier work.
For the next series, the target named is protein Kinase C. As to conditions: read-out: IC50, inhibition of protein Kinase C; cited from earlier work.
The subject of the next series is NaV channels. As to conditions: read-out: IC50s, inhibition of NaV channels; cited from earlier work.
Series [6] deals with N- and P/Q-type Ca2+ channels. The settings on record: read-out: IC50, block of N- and P/Q-type Ca2+ channels; cited from earlier work.
For series [7], the system named is small-conductance Ca2+-activated K+ channels. The settings on record: read-out: EC50, activation of small-conductance Ca2+-activated K+ channels; cited from earlier work.
[8] abbreviates: 4-AP-stimulated (depolarization) [14C]-MeAIB uptake, DIV16, n in brackets, read-out: SNAT Activity IC50, 4-AP.
The mark [9] stands for this setting: spontaneous [14C]-MeAIB uptake, DIV 19, n in brackets, read-out: SNAT Activity IC50, Spont.

T1 sequence (B1AWN6 whole entry): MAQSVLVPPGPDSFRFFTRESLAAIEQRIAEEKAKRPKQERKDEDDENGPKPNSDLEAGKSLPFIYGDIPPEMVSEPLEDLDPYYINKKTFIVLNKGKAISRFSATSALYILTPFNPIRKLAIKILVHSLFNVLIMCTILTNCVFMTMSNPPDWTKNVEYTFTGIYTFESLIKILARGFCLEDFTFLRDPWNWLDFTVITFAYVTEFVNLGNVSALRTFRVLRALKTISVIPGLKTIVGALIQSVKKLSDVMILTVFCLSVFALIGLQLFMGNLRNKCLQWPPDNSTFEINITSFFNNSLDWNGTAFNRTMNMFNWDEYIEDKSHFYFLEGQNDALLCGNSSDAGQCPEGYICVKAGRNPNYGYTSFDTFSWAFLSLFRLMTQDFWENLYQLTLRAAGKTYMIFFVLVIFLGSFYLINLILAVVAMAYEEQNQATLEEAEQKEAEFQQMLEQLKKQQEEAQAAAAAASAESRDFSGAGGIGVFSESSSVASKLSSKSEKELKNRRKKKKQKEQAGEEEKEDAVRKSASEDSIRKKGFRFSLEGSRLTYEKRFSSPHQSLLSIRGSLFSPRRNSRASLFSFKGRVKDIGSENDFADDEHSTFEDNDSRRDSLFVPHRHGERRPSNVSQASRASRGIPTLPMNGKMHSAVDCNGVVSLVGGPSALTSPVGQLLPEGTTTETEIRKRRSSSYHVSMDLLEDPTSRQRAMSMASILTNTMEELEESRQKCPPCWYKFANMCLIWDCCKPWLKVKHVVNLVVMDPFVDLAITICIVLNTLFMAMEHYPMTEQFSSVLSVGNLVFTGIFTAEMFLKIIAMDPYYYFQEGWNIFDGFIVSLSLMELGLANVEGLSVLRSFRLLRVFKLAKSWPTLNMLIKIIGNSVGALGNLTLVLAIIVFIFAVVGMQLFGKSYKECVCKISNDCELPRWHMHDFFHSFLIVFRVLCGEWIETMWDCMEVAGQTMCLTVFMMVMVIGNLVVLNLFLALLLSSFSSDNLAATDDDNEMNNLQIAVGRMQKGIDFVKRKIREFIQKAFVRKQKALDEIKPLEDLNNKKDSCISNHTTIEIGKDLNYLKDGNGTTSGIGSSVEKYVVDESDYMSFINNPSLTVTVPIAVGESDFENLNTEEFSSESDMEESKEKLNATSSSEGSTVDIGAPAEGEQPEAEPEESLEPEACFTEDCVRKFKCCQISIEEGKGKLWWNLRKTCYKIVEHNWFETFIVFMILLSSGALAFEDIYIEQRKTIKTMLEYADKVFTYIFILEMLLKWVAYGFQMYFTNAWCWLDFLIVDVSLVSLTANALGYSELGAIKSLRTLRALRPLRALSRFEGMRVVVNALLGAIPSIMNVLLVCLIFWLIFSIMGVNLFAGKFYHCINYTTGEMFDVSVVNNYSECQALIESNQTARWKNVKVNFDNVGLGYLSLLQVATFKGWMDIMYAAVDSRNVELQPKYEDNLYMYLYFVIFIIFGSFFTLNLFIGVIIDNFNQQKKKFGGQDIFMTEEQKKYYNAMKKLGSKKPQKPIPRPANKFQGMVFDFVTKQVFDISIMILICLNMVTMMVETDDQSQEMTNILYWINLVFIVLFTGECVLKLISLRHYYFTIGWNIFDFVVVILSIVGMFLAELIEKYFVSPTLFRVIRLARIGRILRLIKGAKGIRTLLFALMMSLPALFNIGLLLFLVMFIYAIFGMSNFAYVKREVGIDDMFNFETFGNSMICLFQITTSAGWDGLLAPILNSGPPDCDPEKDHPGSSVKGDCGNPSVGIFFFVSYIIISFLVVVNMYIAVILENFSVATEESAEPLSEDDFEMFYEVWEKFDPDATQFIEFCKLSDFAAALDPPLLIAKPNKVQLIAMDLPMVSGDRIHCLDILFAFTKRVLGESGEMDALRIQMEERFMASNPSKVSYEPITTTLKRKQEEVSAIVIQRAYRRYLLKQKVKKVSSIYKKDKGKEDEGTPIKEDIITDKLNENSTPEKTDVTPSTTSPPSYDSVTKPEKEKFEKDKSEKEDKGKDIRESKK

Turning to `C[C@H](N)C(=O)O` [alanine], in [1], the “block of 14C-MeAIB transport activity” value was about 90%.

Turning to `Nc1nc(-c2cccc3ccccc23)c(Br)s1` [SKA-219, 5-Bromo-4-(1-naphthalenyl)thiazol-2-amine], the “neuroprotection against Glu-induced excitotoxicity in the KA model of TLE” value in [2] was “neuroprotective”. The solubility in [3] worked out at 25 µM (≈ 7.63 µg/mL). In [4], the “block of transport activity” value is on record as 90%; the inhibition at 10 µM is 90%; the “inhibition of spontaneous activity-regulated 14C-MeAIB transport, in words” value (shortened to “inhibition … in words”) is given as “blocked spontaneous transport activity; also recorded: inhibited spontaneous transport activity”; the “potency to inhibit activity-regulated MeAIB transport relative to a comparator, in words” value is reported as “as potent as riluzole”. Further, in [4] (hippocampal neurons in vitro, 14C-MeAIB 20 μM, read-out: IC50 to inhibit activity-regulated Gln/MeAIB transport), the pIC50 is about 5.70. For the same compound, the “Active (annotation beside the compound name: active vs inactive derivatives)” value in series [4] (Table 1: SKA-41, and active and inactive derivatives) is on record as “SKA-219 Active”. Also, on NaV1.2, the “less potent to block NaV channels than activity-regulated Gln/MeAIB transport” value is reported as over 10 ×; the “selectivity to inhibit activity-regulated Gln/MeAIB transport over NaV channels” value was > 10 fold and 10 fold and ~15 fold. The pIC50 at NaV1.2 (N1E-115 cells, n=12, read-out: IC50 to inhibit NaV1.2) is 4.52. Moreover, on NaV1.2 (N1E-115 cells, read-out: EC50 concentration to inhibit NaV1.2), the pEC50 was about 4.52.

For `Nc1nc(-c2cccc3ccccc23)c(Cl)s1` [SKA-378, 5-Chloro-4-(naphthalen-1-yl)thiazol-2-amine], the “neuronal degeneration by fluoro-jade B staining in hippocampus” value in series [2] (30 mg/kg 30 min before and 30 min after first KA (5 mg/kg/hr x 2 hr i.p.), 3 days after KA) was “prevents fluoro-jade B staining in all regions of the hippocampus; also recorded: Neurodegeneration is not observed”. Besides, the “neuroprotection when given after onset of SE” value in series [2] (30 mg/kg 1 hr after onset of stage IV seizures, at 4 hr post SE, then once daily for 3 days) is listed as “neuroprotective”. Also, the “NeuN staining: disorganization and neuron loss in CA3 and hilus” value in series [2] (30 mg/kg pretreatment, 3 days after KA) was “prevents the disorganization and cell loss”. Also, the “neuroprotection against Glu-induced excitotoxicity in the KA model of TLE” value in series [2] is given as “neuroprotective”. The “potency to inhibit activity-regulated MeAIB transport relative to a comparator, in words” value in series [4] was “as active as SKA-219 and SKA-220, respectively; also recorded: most potent”.

Regarding `Nc1nc2ccc3ccccc3c2s1` [SKA-45], the established ion-channel activity entry in the series with KCa2 and NaV channels was “KCa2 activators”. Also, the “inhibition … in words” value in [4] is given as “active”.

In the case of `Nc1nc2ccc(Cc3ccccc3)cc2s1` [SKA-7], the established ion-channel activity entry in the series with KCa2 and NaV channels was “NaV blockers”. In addition, the “inhibition … in words” value in [4] was “active”.

Consider `O=C(O)[C@@H]1CCCN1` [proline], for which, in series [1], the “block of 14C-MeAIB transport activity” value is about 90%.

On to `Nc1nc2ccc(SC(F)(F)F)cc2s1` [SKA-19, 2-amino-6-trifluoromethylthio-benzothiazole, reference compound], for which the established ion-channel activity entry with KCa2 and NaV channels is “mixed NaV blockers and KCa activators”. Besides, in series [4], the inhibition at 10 µM is about 90% and the “inhibition … in words” value is on record as “active”.

As for `CNC(C)(C)C(=O)O` [MeAIB, α-methylaminoisobutyric acid, reference compound], the “affinity of SNAT1 or SNAT2 for MeAIB” value in the series on SNAT1 or SNAT2 is over 0.5 mM. Further, the Km in series [1] was 30 µM. Moreover, the “relative affinity for PMA-induced K+-activity-stimulated Gln/MeAIB transport activity” value in series [4] is about 35 µM.

For the compound `Nc1nc(-c2cccc3ccccc23)c(Br)s1` [drawing 65], the “Plasma Protein” value in the series with plasma protein is recorded as over 98%. Besides, the “fold difference 4-AP IC50 over Spont IC50” value in series [4] amounted to 2.8 x. Also, the values for the pIC50 (in [4] (setting [8]); in [4] (setting [9]); on NaV1.2 (read-out: Selectivity IC50 Nav1.2)) were 5.29, 5.74 and 4.52, respectively.

Regarding `Nc1nc2ccc(OC(F)(F)F)cc2s1` [riluzole], the pIC50 is under 4.52 in series [5]; under 4.52 at protein Kinase C; 3.30 to 6.00 and 4.30 to 6.00 in the series on NaV channels; under 4.40 in [6]. The “concentration inhibiting delayed-rectifier K+ channels and activating two-pore K+ channels” value in series [5] is 30 to 100 µM. Besides, the established ion-channel activity result in the series with KCa2 and NaV channels is “mixed NaV blockers and KCa activators”. In series [7], the pEC50 was 3.70 to 5.00 and 4.70 to 5.00 and < 4.70.

`NC(=O)CC[C@H](N)C(=O)O` [Gln, glutamine]: in series [1], the “block of 14C-MeAIB transport activity” value was about 90% and the Km is 30 µM. In series [4], the “relative affinity for PMA-induced K+-activity-stimulated Gln/MeAIB transport activity” value is about 97 µM.

Turning to `NCC(=O)O` [glycine], the “block of 14C-MeAIB transport activity” value in series [1] is about 90%.

Consider `N[C@@H](Cc1c[nH]cn1)C(=O)O` [histidine], for which the “block of 14C-MeAIB transport activity” value in series [1] is about 90%.

For the compound `CNCC(=O)O` [sarcosine], the “block of 14C-MeAIB transport activity” value in series [1] is about 90%. Also, the “relative affinity for PMA-induced K+-activity-stimulated Gln/MeAIB transport activity” value in [4] is about 8 µM.

For `Nc1nc2ccc(OC(F)(F)Cl)cc2s1` [SKA-11, reference compound], the established ion-channel activity result with KCa2 and NaV channels was “mixed NaV blockers and KCa activators”. Further, in series [4], the “inhibition … in words” value is reported as “active”.

With `Nc1nc(-c2ccc3ccccc3c2)c(Br)s1` [drawing 66], the “Plasma Protein” value with plasma protein was over 98%. For the same compound, in series [4], the “fold difference 4-AP IC50 over Spont IC50” value worked out at 1.5 x. Besides, the pIC50 in [4] (setting [8]) was 5.17; in series [4] (setting [9]), 5.36.
